# Experimental data published in patent US20200261391A1, “METHODS OF REDUCING THE RISK OF A CARDIOVASCULAR EVENT IN A STATIN-TREATED SUBJECT BY INCREASING SERUM AND PLASMA EPA AND DPA LEVELS” (Amarin Pharmaceuticals Ireland Limited, priority 2019, published 2020).
# Tested on: TG, non-HDL-C, LDL-C, HDL-C, apo B, hsCRP
# Assay: REDUCE-IT trial: fasting lipid, lipoprotein and inflammatory marker data over time
# Type: in vivo, human
# Procedure: Fasting Lipid Profile: The fasting lipid panel included: TG, TC, LDL-C, HDL-C, non-HDL-C, and VLDL-C. At all visits, LDL-C was calculated using the Friedewald equation. At Visit 1 and Visit 1.1 direct LDL-C were used if at the same visit TG>400 mg/dL (4.52 mmol/L). These LDL-C values were used for the evaluation of the LDL-C inclusion criterion (LDL-C qualifying measurements for randomization) and for the assessment of changes in the statin therapy when LDL-C was not at goal. […] In addition, irrespective of the TG levels, at Visit 2 (0 Months of Follow-up, baseline) and at Visit 4 (12 Months of Follow-up), LDL-C were measured by preparative ultracentrifugation. These preparative ultracentrifugation LDL-C measurements were used in the statistical analysis including the calculation of the percent change from baseline (1 year versus baseline). Hopkins LDL-C was calculated for each visit.
# Biomarkers Assays: The biomarker assays included: hsCRP, Apo B and hsTnT.
# The fasting lipid panel was tested at Screening (Visit 1 or Visit 1.1), Randomization visit (Visit 2; Day 0), Visit 3 (Day 120; ˜4 Months) and all other follow-up visits including the last visit. For change from baseline to 1 year preparative ultracentrifugation measurements for LDL-C were analyzed, unless this value was missing. If the LDL-C preparative ultracentrifugation values were missing, then another LDL-C value was used, with prioritization of values obtained from LDL-C Direct measurements, followed by LDL-C derived by the Friedewald calculation (only for subjects with TG<400 mg/dL), and finally LDL-C derived using the calculation published by Hopkins University investigators (Martin S S, Blaha M J, Elshazly M B, et al. Comparison of a novel method vs the Friedewald equation for estimating low-density lipoprotein cholesterol levels from the standard lipid profile. JAMA. 2013; 310:2061-8.). In addition, change from baseline to day 120 in LDL-C utilizing Friedewald's and Hopkins methods was analyzed, using the arithmetic mean of LDL-C obtained at Visit 2 (Day 0) and the preceding Visit 1 (or Visit 1.1). If one of these values was missing, the single available LDL-C value was used. LDL-C according to Hopkins was calculated at each visit.
# The randomization visit was considered Baseline. If a baseline value was not available from the randomization visit, then the latest screening value was used. For measurements of lipids, lipoproteins and inflammatory markers, the change and the percent change were summarized at each visit. Since these biomarkers are typically not normally distributed, the Wilcoxon rank-sum test was used for treatment comparisons of the percent change from baseline, and medians and quartiles were provided for each treatment group. The medians of the differences between the treatment groups and 95% CIs were estimated with the Hodges-Lehmann method. In addition, shift-tables were generated as appropriate.
compound,measurement,setting,value
"CC/C=C\C/C=C\C/C=C\C/C=C\C/C=C\CCCC(=O)OCC [icosapent ethyl, eicosapentaenoic acid ethyl ester]",Apo B Median % Change from Baseline,Last Visit,−2.5%
same,Apo B Median Absolute Change from Baseline,Last Visit,-2.0 mg/dL
same,Apo B Median Observed Value,Last Visit,80.0 mg/dL
same,HDL-C Median % Change from Baseline,Last Visit,2.5%
same,HDL-C Median Absolute Change from Baseline,Last Visit,1.0 mg/dL
same,HDL-C Median Observed Value,Last Visit,41.0 mg/dL
same,LDL-C Hopkins Median % Change from Baseline,Last Visit,−1.2%
same,LDL-C Hopkins Median Absolute Change from Baseline,Last Visit,-1.0 mg/dL
same,LDL-C Hopkins Median Observed Value,Last Visit,84.0 mg/dL
same,LDL-C derived Median % Change from Baseline,Last Visit,3.1%
same,LDL-C derived Median Absolute Change from Baseline,Last Visit,2.0 mg/dL
same,LDL-C derived Median Observed Value,Last Visit,77.0 mg/dL
same,Log hsCRP Median % Change from Baseline,Last Visit,−23.1%
same,Log hsCRP Median Absolute Change from Baseline,Last Visit,−0.1 mg/L
same,Log hsCRP Median Observed Value,Last Visit,0.6 mg/L
same,Non-HDL-C Median % Change from Baseline,Last Visit,−4.4%
same,Non-HDL-C Median Absolute Change from Baseline,Last Visit,-5.0 mg/dL
same,Non-HDL-C Median Observed Value,Last Visit,112.0 mg/dL
same,Triglycerides Median % Change from Baseline,Last Visit,−21.6%
same,Triglycerides Median Absolute Change from Baseline,Last Visit,-45.0 mg/dL
same,Triglycerides Median Observed Value,Last Visit,170.0 mg/dL
same,hsCRP Median % Change from Baseline,Last Visit,−12.6%
same,hsCRP Median Absolute Change from Baseline,Last Visit,-0.2 mg/L
same,hsCRP Median Observed Value,Last Visit,1.8 mg/L
same,Apo B Between Group Difference Median % Change from Baseline,"Last Visit, vs placebo",−6.7%
same,Apo B Between Group Difference Median Absolute Change from Baseline,"Last Visit, vs placebo",-5.0 mg/dL
same,HDL-C Between Group Difference Median % Change from Baseline,"Last Visit, vs placebo",−3.0%
same,HDL-C Between Group Difference Median Absolute Change from Baseline,"Last Visit, vs placebo",-1.0 mg/dL
same,LDL-C Hopkins Between Group Difference Median % Change from Baseline,"Last Visit, vs placebo",−7.4%
same,LDL-C Hopkins Between Group Difference Median Absolute Change from Baseline,"Last Visit, vs placebo",-6.2 mg/dL
same,LDL-C derived Between Group Difference Median % Change from Baseline,"Last Visit, vs placebo",−6.6%
same,LDL-C derived Between Group Difference Median Absolute Change from Baseline,"Last Visit, vs placebo",-5.0 mg/dL
same,Log hsCRP Between Group Difference Median % Change from Baseline,"Last Visit, vs placebo",−21.2%
same,Log hsCRP Between Group Difference Median Absolute Change from Baseline,"Last Visit, vs placebo",−0.4 mg/L
same,Non-HDL-C Between Group Difference Median % Change from Baseline,"Last Visit, vs placebo",−8.6%
same,Non-HDL-C Between Group Difference Median Absolute Change from Baseline,"Last Visit, vs placebo",-10.0 mg/dL
same,Triglycerides Between Group Difference Median % Change from Baseline,"Last Visit, vs placebo",−14.1%
same,Triglycerides Between Group Difference Median Absolute Change from Baseline,"Last Visit, vs placebo",-32.0 mg/dL
same,hsCRP Between Group Difference Median % Change from Baseline,"Last Visit, vs placebo",−37.6%
same,hsCRP Between Group Difference Median Absolute Change from Baseline,"Last Visit, vs placebo",-0.8 mg/L
same,HDL-C Median % Change from Baseline,Month 4,−2.8%
same,HDL-C Median Absolute Change from Baseline,Month 4,-1.0 mg/dL
same,HDL-C Median Observed Value,Month 4,39.0 mg/dL
same,LDL-C Hopkins Median % Change from Baseline,Month 4,−2.0%
same,LDL-C Hopkins Median Absolute Change from Baseline,Month 4,-1.6 mg/dL
same,LDL-C Hopkins Median Observed Value,Month 4,83.6 mg/dL
same,Non-HDL-C Median % Change from Baseline,Month 4,−4.0%
same,Non-HDL-C Median Absolute Change from Baseline,Month 4,-4.5 mg/dL
same,Non-HDL-C Median Observed Value,Month 4,113.0 mg/dL
same,Triglycerides Median % Change from Baseline,Month 4,−18.6%
same,Triglycerides Median Absolute Change from Baseline,Month 4,-37.5 mg/dL
same,Triglycerides Median Observed Value,Month 4,177.0 mg/dL
same,HDL-C Between Group Difference Median % Change from Baseline,"Month 4, vs placebo",−7.2%
same,HDL-C Between Group Difference Median Absolute Change from Baseline,"Month 4, vs placebo",-3.0 mg/dL
same,LDL-C Hopkins Between Group Difference Median % Change from Baseline,"Month 4, vs placebo",−10.3%
same,LDL-C Hopkins Between Group Difference Median Absolute Change from Baseline,"Month 4, vs placebo",-8.7 mg/dL
same,Non-HDL-C Between Group Difference Median % Change from Baseline,"Month 4, vs placebo",−12.2%
same,Non-HDL-C Between Group Difference Median Absolute Change from Baseline,"Month 4, vs placebo",-14.3 mg/dL
same,Triglycerides Between Group Difference Median % Change from Baseline,"Month 4, vs placebo",−20.1%
same,Triglycerides Between Group Difference Median Absolute Change from Baseline,"Month 4, vs placebo",-45.5 mg/dL
same,HDL-C Median % Change from Baseline,Year 1,−2.6%
same,HDL-C Median Absolute Change from Baseline,Year 1,-1.0 mg/dL
same,HDL-C Median Observed Value,Year 1,39.0 mg/dL
same,LDL-C Hopkins Median % Change from Baseline,Year 1,−1.2%
same,LDL-C Hopkins Median Absolute Change from Baseline,Year 1,-1.1 mg/dL
same,LDL-C Hopkins Median Observed Value,Year 1,85.3 mg/dL
same,LDL-C derived Median % Change from Baseline,Year 1,3.1%
same,LDL-C derived Median Absolute Change from Baseline,Year 1,2.0 mg/dL
same,LDL-C derived Median Observed Value,Year 1,77.0 mg/dL
same,Non-HDL-C Median % Change from Baseline,Year 1,−3.6%
same,Non-HDL-C Median Absolute Change from Baseline,Year 1,-4.0 mg/dL
same,Non-HDL-C Median Observed Value,Year 1,113.0 mg/dL
same,Triglycerides Median % Change from Baseline,Year 1,−18.3%
same,Triglycerides Median Absolute Change from Baseline,Year 1,-39.0 mg/dL
same,Triglycerides Median Observed Value,Year 1,175.0 mg/dL
same,HDL-C Between Group Difference Median % Change from Baseline,"Year 1, vs placebo",−6.3%
same,HDL-C Between Group Difference Median Absolute Change from Baseline,"Year 1, vs placebo",-2.5 mg/dL
same,LDL-C Hopkins Between Group Difference Median % Change from Baseline,"Year 1, vs placebo",−11.4%
same,LDL-C Hopkins Between Group Difference Median Absolute Change from Baseline,"Year 1, vs placebo",-9.6 mg/dL
same,LDL-C derived Between Group Difference Median % Change from Baseline,"Year 1, vs placebo",−6.6%
same,LDL-C derived Between Group Difference Median Absolute Change from Baseline,"Year 1, vs placebo",-5.0 mg/dL
same,Non-HDL-C Between Group Difference Median % Change from Baseline,"Year 1, vs placebo",−13.1%
same,Non-HDL-C Between Group Difference Median Absolute Change from Baseline,"Year 1, vs placebo",-15.5 mg/dL
same,Triglycerides Between Group Difference Median % Change from Baseline,"Year 1, vs placebo",−19.7%
same,Triglycerides Between Group Difference Median Absolute Change from Baseline,"Year 1, vs placebo",-44.5 mg/dL
same,Apo B Median Year 1,Year 1 in Table 18,80.0 mg/dL
same,hsCRP Median Year 1,Year 1 in Table 18,1.8 mg/L
same,"Apo B Median Between Group Difference at Year 1, % Change from Baseline","Year 1 in Table 18, vs placebo",−9.7%
same,"Apo B Median Between Group Difference at Year 1, Absolute Change from Baseline","Year 1 in Table 18, vs placebo",-8.0 mg/dL
same,"hsCRP Median Between Group Difference at Year 1, % Change from Baseline","Year 1 in Table 18, vs placebo",−39.9%
same,"hsCRP Median Between Group Difference at Year 1, Absolute Change from Baseline","Year 1 in Table 18, vs placebo",-0.9 mg/L
same,Apo B Median % Change from Baseline,Year 2,−2.5%
same,Apo B Median Absolute Change from Baseline,Year 2,-2.0 mg/dL
